Reference: patent publication US20190314196A1, “Topical Ocular Delivery Methods and Devices for Use in the Same” (Kedalion Therapeutics, Inc., priority 2018, published 2019)

Columns and labels:
Assay type in all cases: in vivo, human
eye of subjects [1] = experiment: Presbyopia: pupil diameter after self-administered pilocarpine micro-dose
Protocol: (§1) A 10 μl micro-dose of a 1% pilocarpine solution was self-administered using an electromagnetic actuated fluid delivery device, e.g., as described above, by three subjects to their own eye. The age range of the subjects was 52 years to 68 years, and all subjects were male. The pilocarpine micro-dose was self-administered by the subjects.
(§2) Baseline, pre-dose values of pupil diameter and near visual acuity in both eyes prior to dosing was measured for all subjects, and then following the baseline measurements, the subjects were dosed in only one eye (the eye with the poorer visual acuity) with the micro-dose pilocarpine solution. Approximately 45 to 60 minutes after dosing, pupil diameter and near visual acuity were again tested. Near visual acuity was measured using a Snellen card at a distance of 40 cm. A tabulation of results is given below in Table A.

eye of subjects [2] = experiment: Presbyopia: near visual acuity, Snellen card at 40 cm; settings: 45 to 60 minutes after dosing
Protocol: as §1, §2

[3] = system: patients diagnosed with primary open angle glaucoma; experiment: Trial 2: intraocular pressure reduction, Goldmann applanation tonometry; settings: for Post-treatment IOP, Mean: 0.005% w/v, N=18 eyes; for Post-treatment IOP, Mean / average decrease in IOP measured per patient / Post-treatment IOP, Median: approx. 8 hours after dosing; for Post-treatment IOP, Median: baseline median 18.0; for Total pressure reduction, Mean / Total pressure reduction, Median: signed change from baseline
Protocol: Trial 2 compared the efficacy (dose volume equivalence) of 0.005% w/v latanoprost for intraocular pressure reduction when delivered via AcuStream™ (pre-trial calibration volume=9.2 μl) versus the standard eye dropper for topical drug delivery (approximate volume=30 μl).
Patients included in Trial 2 have previously been diagnosed with primary open angle glaucoma on the basis of intraocular pressure and visual field testing, fundus examination or optical coherence tomography (OCT) data and are currently on prostaglandin analog medical therapy. Patients with corneal abnormalities that would interfere with accurate IOP measurements with applanation tonometry, use of an oral or topical ophthalmic steroids within the past 14 days from screening date, any active ocular surface or anterior segment disease, or progressive field loss during the past year were excluded from the study. Thirteen men and five women participated in the trial.
Recruited patients were taken off medical therapy for a period of 3-4 weeks prior to the study to allow drug “wash out”, thereby elevating their IOPs to pre-treatment levels which was confirmed by examination of the patients' chart history. Patients were randomly assigned as “test” (AcuStream™), or “control” (standard eye dropper). The mean age of the control group and test group were 61.0 years and 65.2 years, respectively.
The patients assigned to either the “test” or “control” group by means of a random numbers table in order to mitigate any potential cross-over effects that could confound data interpretation. An odd number dictated that the patient was in the test group, while even-numbered patients were in the control group.
After performing slit lamp examinations on each patient to verify eligibility and obtaining informed consent, intraocular pressure (IOP) was measured by a sole experienced examiner who was blind to the randomized conditions. A pre-calibrated Goldmann applanation tonometer coupled to a Haag-Streit 900 EQ slit lamp was used to conduct baseline IOP measurements. Once baseline IOP data were verified to be equivalent to pre-medical therapy levels (based on patient's treatment history), the patient then continued to the dosing stage of the study.
Latanoprost solution was administered by a sole ophthalmologist to both eyes of each patient, based on the pre-determined randomized condition.

[4] = standard eye dropper control group

SMILES: CC[C@@H]1C(=O)OC[C@@H]1Cc1cncn1C [pilocarpine]
- Mean change in dosed pupil dia (eye of subjects [1]; dosed eye, 10 μl micro-dose of 1% solution, 45 to 60 minutes after dosing, 3 subjects): −0.7 mm
- Mean post-dose pupil dia (eye of subjects [1]; dosed eye, 10 μl micro-dose of 1% solution, 45 to 60 minutes after dosing, 3 subjects, baseline mean 2.9 mm): 2.2 mm
- mean reduction in pupil diameter (eye of subjects [1]; dosed eye, 10 μl micro-dose of 1% solution, all subjects): 0.70 mm
- miotic effect in non-dosed eye (eye of subjects [1]; non-dosed contralateral eye): no miotic effect
- Mean change in non-dosed pupil dia (eye of subjects [1]; non-dosed contralateral eye, 45 to 60 minutes after dosing): 0.2 mm
- Mean non-dose pupil dia (eye of subjects [1]; non-dosed contralateral eye, 45 to 60 minutes after dosing, baseline mean 2.8 mm): 3.0 mm
- Median dosed eye near visual acuity (eye of subjects [2]; baseline median 20/30): 20/20
- # of lines change in visual acuity (mean improvement) (eye of subjects [2]; dosed eye, 3 subjects): 2 lines

SMILES: CC(C)OC(=O)CCC/C=C\C[C@@H]1[C@@H](CC[C@@H](O)CCc2ccccc2)[C@H](O)C[C@@H]1O [latanoprost]
- difference in IOP reduction between groups ([3]; AcuStream 9.2 μl versus standard eye dropper 30 μl): no statistically significant differences
- Post-treatment IOP, Mean ([3]; AcuStream test group, 9.2 μl, baseline 18.6): 13.6 mm Hg
- average decrease in IOP measured per patient ([3]; AcuStream test group): 5.0 mm Hg
- Post-treatment IOP, Median ([3]; AcuStream test group): 13.0 mm Hg
- Total pressure reduction, Mean ([3]; AcuStream test group): −5.0 mm Hg
- Total pressure reduction, Median ([3]; AcuStream test group): −5.0 mm Hg
- post-instillation IOP (OD), single patient outlier ([3]; control group, baseline IOP 30 mm Hg): 17 mm Hg
- equivalence of 9.2 μl AcuStream dose to 30 μl standard eye drop, intraocular pressure reduction ([3]; latanoprost 0.005% w/v): pharmacodynamic equivalence
- Post-treatment IOP, Mean ([3]; standard eye dropper control group, approx. 30 μl, baseline 17.7): 13.3 mm Hg
- average decrease in IOP measured per patient [3, 4]: 4.3 mm Hg
- Post-treatment IOP, Median [3, 4]: 12.0 mm Hg
- Total pressure reduction, Mean [3, 4]: −4.3 mm Hg
- Total pressure reduction, Median [3, 4]: −4.0 mm Hg
